Experimental data published in US6703362B1, “Random peptides that bind to gastro-intestinal tract (GIT) transport receptors and related methods” (Cytogen Corporation, priority 1997, dated 2004).

What was measured:
[1] = Isoelectric points of synthetic peptides; assay type: physicochemical
HPT1 = target: T1, HPT1 (Homo sapiens, UniProt Q12864); assay: Phage receptor ELISA on HPT1; assay type: binding; conditions: Table 5
T1 construct: 29-273; made in house
T1 sequence (Q12864 29-273): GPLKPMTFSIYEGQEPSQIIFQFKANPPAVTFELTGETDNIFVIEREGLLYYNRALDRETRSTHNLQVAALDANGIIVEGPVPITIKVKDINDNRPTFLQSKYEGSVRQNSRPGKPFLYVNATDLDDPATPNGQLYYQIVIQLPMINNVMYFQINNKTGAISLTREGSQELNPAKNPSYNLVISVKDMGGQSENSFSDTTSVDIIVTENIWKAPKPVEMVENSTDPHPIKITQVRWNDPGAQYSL
Description: (§1) 96 well plates were coated overnight with GIT receptor, BSA and, optionally, IDE (insulin degrading enzyme, an irrelevant His-fusion protein)or hTF. The plates were 5 blocked for one hour with 0.5% BSA-PBS. After clarification, the amplified phage were diluted 1:100 in […] plus 0.05% Tween 20 in PBS and added to the plates. Following incubation of the plates on a rotator for 1 to 2 hours, the plates were washed 5 times with 1% BSA plus 0.05% Tween 20 in PBS. Dilute anti-M13-HRP conjugate (anti-M13 antibody linked to horse radish peroxidase (HRP)) was added to all the wells and the plate was incubated for one hour on a rotator. After the plates were washed 5 times, as described above, TMB substrate was added to the wells. The plates were read at 650 nm absorbance.

BSA = BSA (Bos taurus, UniProt P02769); assay: Phage ELISA on BSA (background control protein); assay type: binding; conditions: Table 5
Description: as §1

Chain of BSA (P02769 25-607): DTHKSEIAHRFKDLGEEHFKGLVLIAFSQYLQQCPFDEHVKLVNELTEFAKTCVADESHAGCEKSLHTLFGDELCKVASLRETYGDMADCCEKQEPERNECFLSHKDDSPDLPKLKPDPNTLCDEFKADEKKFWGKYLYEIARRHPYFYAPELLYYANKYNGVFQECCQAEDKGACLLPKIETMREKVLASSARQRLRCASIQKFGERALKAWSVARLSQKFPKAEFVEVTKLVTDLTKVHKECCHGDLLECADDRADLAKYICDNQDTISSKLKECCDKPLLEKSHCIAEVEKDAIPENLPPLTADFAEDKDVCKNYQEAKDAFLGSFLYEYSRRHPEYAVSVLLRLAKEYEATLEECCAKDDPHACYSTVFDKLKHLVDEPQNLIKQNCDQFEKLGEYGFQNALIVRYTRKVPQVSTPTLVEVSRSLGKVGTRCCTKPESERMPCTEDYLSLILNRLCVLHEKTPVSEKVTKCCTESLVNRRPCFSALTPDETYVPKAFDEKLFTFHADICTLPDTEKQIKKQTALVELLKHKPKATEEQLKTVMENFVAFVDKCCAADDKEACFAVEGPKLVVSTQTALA

pI [1]: 9.62 | OD, binding to HPT1 (HPT1; phage panned on HPT-1): 0.32 | HPT/BSA (HPT1; ratio of HPT-1 to BSA binding): 5 | OD, binding to BSA (BSA): 0.071
Sequence: SDHALGTNLRSDNAKEPGDYNCCGNGNSTGRKVFNRRRPSAIPT [HAX42]
